The numbers were not newly measured in patent US20190367449A1, “PHENYLCREATINE, ITS USE AND METHOD FOR ITS PRODUCTION” (priority 2017, published 2019), which cites them from elsewhere.

For the data set the following is noted: in vivo; cited from earlier work.

As for `CN(CC(=O)O)C(=N)N.Cl` [creatine hydrochloride], the “Relative bioavailability, higher than of creatine monohydrate” value is on record as “about 50%”.
